Measurements from patent US20220409526A1 (Retina Foundation Of The Southwest, priority 2019, published 2022).

Assays:
[1] = test system: ARPE-19 cells; assay: GSH assay (Promega GSH/GSSG-Glo); type: cell-based, human; conditions: 1 mM for 24 hours
Protocol: The production of cellular GSH levels upon exposure to drugs were measured using the GSH assay kit. NACA and GSH-EE were used as controls in this assay. ARPE-19 cells were grown in white 96 well plates. The cells were exposed to 1 mM solutions of NAC, NACME, NACEE, NACPE, NACBE, NACA and glutathione ethyl ester (GSH-EE) for 24 hours. The solutions were removed and washed with PBS once. Afterwards, GSH assay was carried out according to manufacturer recommended protocol (Promega GSH/GSSG-Glo™) and luminescence readings were obtained with a luminometer, which a higher luminescence intensity indicates a higher GSH concentration.

[2] = in vitro; type: cell-based, human; conditions: human
Protocol: (§1) ARPE-19 cells were grown in DMEM:F-12 supplemented with 10% fetal bovine serum (FBS). For all experiments these cells were split and grown in 6-well plates using MEM-Nic supplemented with 1% FBS according to a previously published procedure.^33 Cells used for all the experiments were between passages 25-30. For all experiments, the 96 well plates and 8-well slides were coated with 0.039 mg/mL collagen I at 6 μg/cm^2. The cells were seeded at a cell density of 70,000 cells/well and 150,000 cells/well using MEM-Nic media for 96 well plates and 8 well slides, respectively. Once the cells are confluent, media was replaced with MEM a, GlutaMAX™, supplemented with 1% FBS for 24 hours before carrying out assay protocols. Exposure to NAC alkyl-ester prodrugs were carried out in MEM a, GlutaMAX™, supplemented with 1% FBS and treatment with HQ was carried out in serum free DMEM:F-12.
(§2) ARPE-19 Cell viability assays were carried out using XTT/PMS reagent mixtures according to standard procedures known in the art (see Celis, J. E.; Carter, N., Cell Biology: A Laboratory Handbook. Elsevier Science: 2005). Corresponding absorbance readings were obtained using a plate reader at 450 and 660 nm.
(§3) A dose dependent study was first carried out for ARPE-19 cells using HQ concentrations varying from 100-1000 μM. Cells were then incubated at 37° C., 5% CO2 for 16 hours. HQ doses of less than 400 μM were non-lethal. Using 500 μM HQ for 16 hours gave a cell viability of ˜60%.
(§4) To evaluate the ability of the NAC alkyl-ester analogues to provide cellular protection against oxidative stress, cells were treated with 0.05 mM of NAC, NACME, NACEE, NACPE and NACBE for 2, 24 and 48 hours. Treated cells were then exposed to 500 μM HQ for 16 hours. HQ solutions were removed and replaced with DMEM:F-12 supplemented with 1% FBS, and followed by the addition of XTT (2,3-bis-(2-methoxy-4-nitro-5-sulfophenyl)-2H-tetrazolium-5-carboxanilide) and PMS (phenazine methyl sulfate).
(§5) To compare the effectiveness of NACBE and NAC in protecting against oxidative damage, another dose dependent study was carried out by varying the pretreatment concentration from 0.001 mM to 1.0 mM. […] Whereas for NAC, to reach the same cell viability, 0.5 mM concentration was needed (10× times that of NACBE).

[3] = test system: ARPE-19 cells; assay: in vitro; type: cell-based, human
Protocol: as §1, §2, §3, §4, §5

[4] = test system: ARPE-19 cells; assay: JC-1 assay (mitochondrial membrane potential); type: cell-based, human; conditions: 50 μM HQ for 4 hours, compared to the control
Protocol: JC-1 assays measuring the change in mitochondrial membrane potential were carried out to evaluate the protection of the NAC alkyl-ester analogues towards mitochondrial damage.
Typically, JC-1 dye has an inherent green fluorescence at 530 nm. Upon reaching the cell, due to the structural properties of the dye, it will accumulate in the mitochondria making aggregates known as J-aggregates. These J-aggregates consists of a red shifted fluorescence (590 nm). Damaged or unhealthy mitochondria, due to their depolarized membrane potential (compared to healthy ones), will have lesser amounts of aggregates and thus will have low intensity of red emission. Cells with healthy mitochondria will have a more prominent red fluorescence than that in cells with damaged/unhealthy mitochondria due to the ability in forming J-aggregates.
ARPE-19 cells were grown in black, clear bottom 96 well plates. […] With increasing time and dose of HQ, a drop in 590 nm/530 nm fluorescence is seen due to the depolarization of the mitochondria.
Next, to assess the effect of NAC alkyl-ester analogues on oxidative damage in mitochondria (FIG. 12B), ARPE-19 cells were pretreated with 1 mM NAC, NAC alkyl-ester analogues, NACA, GSH-EE and 1 μM MitoQ for 1 and 24 hours. […] The JC-1 solution was removed and washed once with PBS and fluorescence measurements were obtained in PBS at 485 nm excitation and emission at 535 nm and 590 nm. […]

[5] = test system: ARPE-19 cells; assay: CellTiter-Glo assay (ATP); type: cell-based, human
Protocol: ARPE-19 cells were grown in white 96 well plates. The cells were first exposed to 500 μM of HQ for 3, 6 and 8 hours and the amount of ATP produced was measured using the CellTiter-Glo assay kit to obtain a time dependent response (FIG. 15). […] Due to the mitochondrial damage caused by HQ, the production of ATP was decreased.

[6] = test system: mitochondrial DNA of ARPE-19 cells; assay: DNA fragmentation assay (long-extension PCR of mitochondrial DNA); type: cell-based, human
Protocol: Mitochondrial DNA damage has been linked to pathogenic diseases, including AMD. To determine if pretreatment of RPE cells with NAC alkyl-ester analogues could protect mitochondrial DNA against oxidative damage, a long-extension PCR based assay was used to measure amplification of a large stretch of mitochondrial DNA. The mitochondrial DNA damage assay was performed according to protocols known to those in the art (see Santos, J. H.; Mandavilli, B. S.; Van Houten, B., Measuring Oxidative mtDNA Damage and Repair Using Quantitative PCR. In Mitochondrial DNA: Methods and Protocols, Copeland, W. C., Ed. Humana Press: Totowa, N.J., 2002; pp 159-176). Briefly, ARPE-19 cells were grown to confluency in 6-well plates. The cells were treated with NAC alkyl-ester analogues for 24 hours, washed and then treated with 500 uM HQ for an additional 24 hours. DNA was isolated from the treated cells with a QIAamp DNA mini kit (Qiagen). The DNA samples were diluted to 3 ng/μl for use in PCR reactions. PCR products were quantified using the Quant-iT Picogreen dsDNA Assay kit (Invitrogen). The relative amplification of the large band was normalized to untreated cells. The amplification of the small mitochondrial band was used to normalize the data obtained from the large band to account for mitochondrial DNA copy number.

[7] = test system: ARPE-19 cells; assay: ZO-1 staining of cellular junctions; type: cell-based, human
Protocol: ARPE-19 cells were grown on an 8-well slide until confluent. The cells were exposed to 1 mM NAC and NACBE for 24 hours, followed by treatment with 500 μM of HQ for 2 hours. The cells were washed with 3 cycles of PBS, and then fixed with 4% Paraformaldehyde at 4° C. for 30 mins. After fixation the cells were blocked in PBST (0.2% Triton X-100)+1% BSA for 60 mins. Primary antibody (rabbit anti-Zo-1, Invitrogen) was diluted 1/100 in PBST+1% BSA and added overnight at […]. Cells were washed ×3 with PBS and secondary antibody (Donkey anti-Rabbit AF-555, Abcam) was added for 4 hours at RT. Cells were washed ×3 with PBS and mounted with Prolong Diamond Mountant with DAPI (Invitrogen).

[8] = test system: ARPE-19 cells; assay: HPLC analysis of cellular uptake and conversion to NAC; type: in vitro ADME, human; conditions: 1 mM for 1 hour in HBSS
Protocol: ARPE-19 cells were seeded onto a 60 cm^2 dish and was allowed to grow to confluency. The cells were treated with 1 mM NAC and NACBE for 1 hour in HBSS. The drug solution was aspirated and washed twice with HBSS. The cells were scraped with the aid of methanol (˜1 mL) and collected into 2 mL centrifuge tubes. The cell suspension in methanol was sonicated (for cell lysis) in a water bath for 30 minutes and was centrifuged at 14,000 RPM for 15 minutes. The supernatant was transferred to a HPLC vial and methanol was evaporated under a stream of nitrogen.
The sample was resuspended in 50 μL of methanol before injecting into the HPLC system. Samples and standard (20 μL) were injected with an autosampler. Separation was conducted by 0.8 mL/min gradient elution with a water/0.10% formic acid and acetonitrile mobile phase on a 250×4.6-mm ([…]) C18 column (Restek, Pinnacle II) maintained at 25° C. The samples were monitored at 205 nm with a UV detector and analyzed with Agilent Chemstation software.

[9] = test system: ARPE-19 cells; assay: JC-1 staining (confocal); conditions: 1 mM pretreatment for 24 hours, then 50 μM HQ for 4 hours
From the text: The cells were imaged on the confocal (Zeiss LSM 800) by excitation with the 488 nm laser and emission imaged at 530 nm (green channel) and 590 nm (red channel).

SMILES: CC(=O)N[C@@H](CS)C(N)=O
- cellular GSH level (luminescence) compared to untreated cells [1]: did not produce any significant GSH

SMILES: CCOC(=O)CNC(=O)[C@H](CS)NC(=O)CC[C@H](N)C(=O)O [GSH-EE, glutathione ethyl ester]
- cellular GSH level (luminescence) compared to untreated cells [1]: did not produce any significant GSH

SMILES: Oc1ccc(O)cc1 [HQ, hydroquinone]
- viability at 16 h, 500 μM [2]: ~60%
- non-lethal HQ doses ([3]; human, 16 h): less than 400 μM
- mitochondrial depolarization (590 nm/530 nm fluorescence) [4]: moderate depolarization
- level of ATP ([5]; 500 μM HQ for 3, 6 and 8 hours): the level of ATP decreased
- amplification of mitochondrial DNA ([6]; 500 uM HQ for 24 hours): drastically reduced the amplification of mitochondrial DNA

SMILES: CC(=O)N[C@@H](CS)C(=O)O [NAC, N-acetylcysteine]
- concentration needed for 100% cell viability relative to NACBE ([3]; NAC 0.5 mM versus NACBE 0.05 mM): 10 ×
- pretreatment concentration at which 100% cell viability was obtained ([3]; pretreatment 0.001-1.0 mM for 24 hours, then 500 μM HQ for 16 hours): 0.5 mM
- ZO-1 staining of cell-cell junctions ([7]; 1 mM for 24 hours, without HQ): proper cell-cell junctions
- ZO-1 staining of cellular junctions after exposure to HQ ([7]; 1 mM pretreatment for 24 hours, then 500 μM HQ for 2 hours): diminished or was completely absent
- compound and metabolite detected within the cells by HPLC [8]: no NAC was detected
- cellular GSH level (luminescence) compared to untreated cells [1]: did not produce any significant GSH
- ATP production after HQ insult ([5]; 1 mM pretreatment, then 500 μM HQ for 3, 6 and 8 hours): some protection
- protection of mitochondrial DNA amplification against HQ ([6]; pretreatment for 24 hours (1 mM), then 500 uM HQ for 24 hours): did not show any signs of protection
- mitochondrial membrane potential after HQ (JC-1 staining) [9]: did not help to retain mitochondrial depolarization

SMILES: CCOC(=O)[C@H](CS)NC(C)=O [NACEE, N-acetylcysteine ethyl ester]
- cellular GSH level (luminescence) compared to untreated cells [1]: produced the highest amounts of GSH

SMILES: CCCOC(=O)[C@H](CS)NC(C)=O [NACPE, N-acetylcysteine propyl ester]
- cellular GSH level (luminescence) compared to untreated cells [1]: produced the highest amounts of GSH
